Oligonucleotides are written 5' to 3', each unit as a sugar letter and its base; * is a phosphorothioate linkage, no mark a phosphodiester; rarer units and linkages stand in square brackets, end groups in braces. Plain capitals give the bases only. e = 2'-O-(2-methoxyethyl) (MOE); [5mC] = 5-methylcytosine; d = 2'-deoxy (DNA)
Legend:
Type in all cases: in vivo, mouse
[1] = test system: Sterol O-acyltransferase 2 (Soat2) mRNA; assay: PCR microarray analysis of liver, LDLr-/- mice: Soat2; details: 6 weeks
Description: (§1) Four groups of five male mice each were injected with a total of 1.5, 5, 15, or 50 mg/kg/week of ISIS 447118 for 6 weeks. A group of five mice was injected with a total of 50 mg/kg/week of control oligonucleotide ISIS 141923 ([…], designated herein as SEQ ID NO: 112, which has no known murine target) for 6 weeks. A control group of five mice was injected with phosphate buffered saline (PBS) twice a week for 6 weeks. Plasma samples were obtained before the start of treatment, at week 3 and at week 6. At the end of the treatment period, the mice were euthanized. Plasma and tissue samples were obtained for further analysis.
(§2) Liver samples from the mice groups were analyzed using a commercial kit for PCR microarray analysis (SA Biosciences Corp., MD), according to the manufacturer's instructions. Genes involved in lipoprotein and cholesterol metabolism were compared with the PBS control.

[2] = test system: Apolipoprotein A-IV (ApoA4) mRNA; assay: PCR microarray analysis of liver, LDLr-/- mice: ApoA4; details: 6 weeks
Description: as §1, §2

[3] = test system: Farnesyl diphosphate synthetase (Fdps) mRNA; assay: PCR microarray analysis of liver, LDLr-/- mice: Fdps; details: 6 weeks
Description: as §1, §2

[4] = test system: Stabilin 1 (Stab1) mRNA; assay: PCR microarray analysis of liver, LDLr-/- mice: Stab1; details: 6 weeks
Description: as §1, §2

[5] = Plasma cholesterol and triglycerides in LDLr-/- mice
Description: The LDLr knockout mice model is a model for familial hypercholesterolemia developed by Ishibashi et al (J Clin Invest 1993; 92: 883-893). On a normal chow diet, the mice have an average total cholesterol of 250 mg/dL due to increases in LDL and VLDL cholesterol. This model is therefore highly susceptible to atherosclerosis (Ishibashi et al Proc Natl Acad Sci USA 1994; 91: 4431-4435).
as §1
To investigate the effect of inhibition of TTC39B on triglycerides and cholesterol levels in the plasma, samples were collected on weeks 0, 3, and 6, and total plasma cholesterol, LDL cholesterol, HDL cholesterol, and triglycerides were analyzed on an Olympus AU400e Analyzer.

[6] = test system: Proprotein convertase subtilisin/kexin type 9 (Pcsk9) mRNA; assay: PCR microarray analysis of liver, LDLr-/- mice: Pcsk9; details: 6 weeks
Description: as §1, §2

[7] = test system: Insulin induced gene 1 (Insig1) mRNA; assay: PCR microarray analysis of liver, LDLr-/- mice: Insig1; details: 6 weeks
Description: as §1, §2

[8] = test system: Mevalonate (diphospho) decarboxylase (Mvd) mRNA; assay: PCR microarray analysis of liver, LDLr-/- mice: Mvd; details: 6 weeks
Description: as §1, §2

[9] = test system: Low density lipoprotein receptor (Ldlr) mRNA; assay: PCR microarray analysis of liver, LDLr-/- mice: Ldlr; details: 6 weeks
Description: as §1, §2

[10] = test system: Oxysterol binding protein-like 5 (Osbpl5) mRNA; assay: PCR microarray analysis of liver, LDLr-/- mice: Osbpl5; details: 6 weeks
Description: as §1, §2

[11] = 1.5 mg/kg/week, Week 0 (before treatment)
[12] = 5 mg/kg/week, Week 0 (before treatment)
[13] = 15 mg/kg/week, Week 0 (before treatment)
[14] = 50 mg/kg/week, Week 0 (before treatment)

For “GCAGCTCGATTCGGGCATGA (antisense eG*e[5mC]*eA*eG*e[5mC]*dT*d[5mC]*dG*dA*dT*dT*d[5mC]*dG*dG*dG*e[5mC]*eA*eT*eG*eA) [ISIS 447118]”, the “Soat2 fold increase/decrease relative to PBS group” value ([1]; 1.5 mg/kg) was 1.05 fold, the “Soat2 fold increase/decrease relative to PBS group” value ([1]; 5 mg/kg) was 0.88 fold and the “Soat2 fold increase/decrease relative to PBS group” value ([1]; 15 mg/kg) was 1.36 fold. For the same sequence, the “Soat2 fold increase/decrease relative to PBS group” value ([1]; 50 mg/kg) was 1.79 fold, the “ApoA4 fold increase/decrease relative to PBS group” value ([2]; 1.5 mg/kg) was 1.26 fold and the “ApoA4 fold increase/decrease relative to PBS group” value ([2]; 5 mg/kg) was 1.38 fold. The “ApoA4 fold increase/decrease relative to PBS group” value ([2]; 15 mg/kg) was 1.76 fold, the “ApoA4 fold increase/decrease relative to PBS group” value ([2]; 50 mg/kg) was 2.7 fold and the “Fdps fold increase/decrease relative to PBS group” value ([3]; 1.5 mg/kg) was 1.03 fold. The “Fdps fold increase/decrease relative to PBS group” value ([3]; 5 mg/kg) was 0.84 fold, the “Fdps fold increase/decrease relative to PBS group” value ([3]; 15 mg/kg) was 0.8 fold and the “Fdps fold increase/decrease relative to PBS group” value ([3]; 50 mg/kg) was 0.66 fold. For the same sequence, the “Stab1 fold increase/decrease relative to PBS group” value ([4]; 1.5 mg/kg) was 1.15 fold, the “Stab1 fold increase/decrease relative to PBS group” value ([4]; 5 mg/kg) was 1.19 fold and the “Stab1 fold increase/decrease relative to PBS group” value ([4]; 15 mg/kg) was 1.35 fold. For the same sequence, the “Stab1 fold increase/decrease relative to PBS group” value ([4]; 50 mg/kg) was 1.53 fold, the “HDL cholesterol % increase on week 6 (% change over baseline)” value ([5]; 1.5 mg/kg/week) was 36% and the HDL cholesterol levels [5, 11] was 75 mg/dL. The LDL cholesterol levels [5, 11] was 115 mg/dL, the total cholesterol levels [5, 11] was 227 mg/dL and the triglyceride levels [5, 11] was 126 mg/dL. For the same sequence, the HDL cholesterol levels ([5]; 1.5 mg/kg/week, Week 3) was 71 mg/dL, the LDL cholesterol levels ([5]; 1.5 mg/kg/week, Week 3) was 116 mg/dL and the total cholesterol levels ([5]; 1.5 mg/kg/week, Week 3) was 217 mg/dL. It also gave a triglyceride levels ([5]; 1.5 mg/kg/week, Week 3) of 107 mg/dL, an HDL cholesterol levels ([5]; 1.5 mg/kg/week, Week 6) of 101 mg/dL and an LDL cholesterol levels ([5]; 1.5 mg/kg/week, Week 6) of 131 mg/dL. The total cholesterol levels ([5]; 1.5 mg/kg/week, Week 6) was 247 mg/dL, the triglyceride levels ([5]; 1.5 mg/kg/week, Week 6) was 142 mg/dL and the “HDL cholesterol % increase on week 6 (% change over baseline)” value ([5]; 5 mg/kg/week) was 28%. The HDL cholesterol levels [5, 12] was 88 mg/dL, the LDL cholesterol levels [5, 12] was 112 mg/dL and the total cholesterol levels [5, 12] was 234 mg/dL. The triglyceride levels [5, 12] was 118 mg/dL, the HDL cholesterol levels ([5]; 5 mg/kg/week, Week 3) was 83 mg/dL and the LDL cholesterol levels ([5]; 5 mg/kg/week, Week 3) was 120 mg/dL. It also gave a total cholesterol levels ([5]; 5 mg/kg/week, Week 3) of 232 mg/dL, a triglyceride levels ([5]; 5 mg/kg/week, Week 3) of 122 mg/dL and an HDL cholesterol levels ([5]; 5 mg/kg/week, Week 6) of 112 mg/dL. The LDL cholesterol levels ([5]; 5 mg/kg/week, Week 6) was 130 mg/dL, the total cholesterol levels ([5]; 5 mg/kg/week, Week 6) was 261 mg/dL and the triglyceride levels ([5]; 5 mg/kg/week, Week 6) was 149 mg/dL. For the same sequence, the “HDL cholesterol % increase on week 6 (% change over baseline)” value ([5]; 15 mg/kg/week) was 45%, the HDL cholesterol levels [5, 13] was 84 mg/dL and the LDL cholesterol levels [5, 13] was 122 mg/dL. The total cholesterol levels [5, 13] was 239 mg/dL, the triglyceride levels [5, 13] was 120 mg/dL and the HDL cholesterol levels ([5]; 15 mg/kg/week, Week 3) was 82 mg/dL. The LDL cholesterol levels ([5]; 15 mg/kg/week, Week 3) was 133 mg/dL, the total cholesterol levels ([5]; 15 mg/kg/week, Week 3) was 249 mg/dL and the triglyceride levels ([5]; 15 mg/kg/week, Week 3) was 126 mg/dL. For the same sequence, the HDL cholesterol levels ([5]; 15 mg/kg/week, Week 6) was 122 mg/dL, the LDL cholesterol levels ([5]; 15 mg/kg/week, Week 6) was 158 mg/dL and the total cholesterol levels ([5]; 15 mg/kg/week, Week 6) was 294 mg/dL. For the same sequence, the triglyceride levels ([5]; 15 mg/kg/week, Week 6) was 131 mg/dL, the “HDL cholesterol % increase on week 6 (% change over baseline)” value ([5]; 50 mg/kg/week) was 58% and the HDL cholesterol levels [5, 14] was 78 mg/dL. The LDL cholesterol levels [5, 14] was 99 mg/dL, the total cholesterol levels [5, 14] was 207 mg/dL and the triglyceride levels [5, 14] was 98 mg/dL. The HDL cholesterol levels ([5]; 50 mg/kg/week, Week 3) was 85 mg/dL, the LDL cholesterol levels ([5]; 50 mg/kg/week, Week 3) was 111 mg/dL and the total cholesterol levels ([5]; 50 mg/kg/week, Week 3) was 224 mg/dL. The triglyceride levels ([5]; 50 mg/kg/week, Week 3) was 96 mg/dL, the HDL cholesterol levels ([5]; 50 mg/kg/week, Week 6) was 124 mg/dL and the LDL cholesterol levels ([5]; 50 mg/kg/week, Week 6) was 146 mg/dL. For the same sequence, the total cholesterol levels ([5]; 50 mg/kg/week, Week 6) was 282 mg/dL, the triglyceride levels ([5]; 50 mg/kg/week, Week 6) was 115 mg/dL and the “Pcsk9 fold increase/decrease relative to PBS group” value ([6]; 1.5 mg/kg) was 0.83 fold. For the same sequence, the “Pcsk9 fold increase/decrease relative to PBS group” value ([6]; 5 mg/kg) was 0.66 fold, the “Pcsk9 fold increase/decrease relative to PBS group” value ([6]; 15 mg/kg) was 0.4 fold and the “Pcsk9 fold increase/decrease relative to PBS group” value ([6]; 50 mg/kg) was 0.23 fold. The “Insig1 fold increase/decrease relative to PBS group” value ([7]; 1.5 mg/kg) was 0.96 fold, the “Insig1 fold increase/decrease relative to PBS group” value ([7]; 5 mg/kg) was 0.84 fold and the “Insig1 fold increase/decrease relative to PBS group” value ([7]; 15 mg/kg) was 0.68 fold. For the same sequence, the “Insig1 fold increase/decrease relative to PBS group” value ([7]; 50 mg/kg) was 0.67 fold, the “Mvd fold increase/decrease relative to PBS group” value ([8]; 1.5 mg/kg) was 0.81 fold and the “Mvd fold increase/decrease relative to PBS group” value ([8]; 5 mg/kg) was 0.7 fold. The “Mvd fold increase/decrease relative to PBS group” value ([8]; 15 mg/kg) was 0.56 fold, the “Mvd fold increase/decrease relative to PBS group” value ([8]; 50 mg/kg) was 0.67 fold and the “Ldlr fold increase/decrease relative to PBS group” value ([9]; 1.5 mg/kg) was 1.43 fold. For the same sequence, the “Ldlr fold increase/decrease relative to PBS group” value ([9]; 5 mg/kg) was 1.28 fold, the “Ldlr fold increase/decrease relative to PBS group” value ([9]; 15 mg/kg) was 1.79 fold and the “Ldlr fold increase/decrease relative to PBS group” value ([9]; 50 mg/kg) was 2.87 fold. The “Osbpl5 fold increase/decrease relative to PBS group” value ([10]; 1.5 mg/kg) was 1.7 fold, the “Osbpl5 fold increase/decrease relative to PBS group” value ([10]; 5 mg/kg) was 2.34 fold and the “Osbpl5 fold increase/decrease relative to PBS group” value ([10]; 15 mg/kg) was 3.11 fold. The “Osbpl5 fold increase/decrease relative to PBS group” value ([10]; 50 mg/kg) was 2.11 fold.
